Test results reported in patent US20230235374A1, “High Throughput Assays for Detecting Translation Readthrough Inducers” (The Trustees of the University of Pennsylvania, priority 2021, published 2023).

Columns and labels:
[1] = test system: rRNA fragments I-IV of Stop-POST5; assay: RNaseH fragment assay, Stop-POST5; format: binding, shrimp (Artemia salina)
Procedure: (§1) RNaseH Fragment Assay. Total RNA was prepared from the ^3H-AzAt photoaffinity labeled ribosome by phenol-chloroform extraction. RNA: DNA duplexes were formed by incubating total RNA (0.2 μM) with an oligonucleotide pair (1 μM of each, sequences shown Table 1), flanking a specific RNA region, in 22.8 μL of water at 95° C. for 2 min, followed by annealing at 50° C. for 30 s and quenching on ice. Six units (1.2 μL) of RNase H (NEB) and 6 μl of 5×RNase H Reaction Buffer were next added to the RNA: DNA duplex and incubated at 37° C. for 1 hour, followed by phenol-chloroform extraction of RNA. The digested RNA was separated on 12% TBE-Urea PAGE gel, and the target band along with the adjacent upper and bottom gels were sliced by a 2 mm gel cutter. The gel slices were crushed and the ^3H labeled rRNA fragment was extracted in water by vigorously shaking at 70° C. for 30 min, or by overnight extraction in elution buffer (0.3M sodium acetate, 0.25% SDS, 1 mM EDTA). The slurry was removed by centrifugation and the eluted ^3H labeled rRNA in the supernatant was quantified. The stoichiometry of AzAt photoincorporation was calculated based on a gel recovery yield of 20±2%, determined using an authentic sample of [^3H]-Gln-tRNA^Gln.
Testing the functional pertinence of AzAt photolabeling of 18S A1195, 28S-A3093, 28S-A2672, and 28S-2669. An RNAse H fragment assay was employed to determine whether the potential functionally significant sites identified by LASER-seq correspond to ataluren binding sites relevant for termination activity. In this assay, oligonucleotide hybridization, RNase H digestion and polyacrylamide gel electrophoresis (PAGE) were used to determine the stoichiometry of [^3H]-AzAt photoincorporation into the three rRNA fragments that together include the four nucleotides of interest: Fragment I, 18S-A1195; Fragment II, 26S-A3093; Fragment III, 26S-A2669 and 26S-A2672 (Table 5). The separate addition of four potential competitors of AzAt binding (eRF1 alone, the stably bound eRF1.eRF3.GDPNP complex, ataluren, and the ataluren-like TRID GJ072) was used to test how these affected such photoincorporation. These experiments, the results of which are summarized in Table 5, were performed at two different AzAt concentrations. eRF1 and eRF1.eRF3.GDPNP effects were measured using 300 μM AzAt, paralleling the LASER-Seq PAL experiments.

eRF1 = target: T1, eRF1 (Saccharomyces cerevisiae, UniProt P12385); assay: [3H]-AzAt photoaffinity labeling of isolated eRF1; format: binding
T1 construct: made in house; host or cells: E. coli BL21(DE3) CodonPlus
Procedure: (§2) Photoaffinity labeling with [^3H]-AzAt. Samples in Buffer 4, typically 20 μL, were incubated in the dark (20 min for Stop-POST5 and 80S-IRES complexes, 2 min for release factors) with various concentrations of [^3H]-AzAt at 37° C., transferred to a UV-transparent cuvette which was covered with parafilm to prevent evaporation, and irradiated in a Rayonet photochemical reactor equipped with 300 nm UV lamps for 5 min at room temperature. This was followed by quenching with 2 mM DTT at 37° C. for 5 min under ambient light. The irradiation time gave complete photolysis of the phenyl azide moiety in AzAt. Photolysis was also complete at 5 min in the presence of 1 mM ataluren, ruling out internal filtering effects.
(§3) Photoaffinity labeling of release factors. Solutions containing eRF1 (10 μM), eRF3 (20 μM) and 1 mM GMPPMP were pre-incubated at 37° C. for 2 min to form the ternary complex prior to photolabeling with [^3H]-AzAt. After quenching, reaction mixtures were loaded onto a 4-15% mini protean SDS-PAGE gel for protein separation and isolation. Gel slices containing eRF1 or eRF3, as shown by Coomassie Blue R250 staining, were crushed and the radioactivity was extracted in extraction buffer (50 mM Tris-HCl, 150 mM NaCl, and 0.1 mM EDTA; pH 7.5) by vigorously shaking at 70° C. for 30 min. The data fitting was performed using the software Prism. Labeling results of eRF1 alone and within the eRF1.eRF3.GDPNP complex were fit with a one-site binding model and a two-site binding model, respectively.

Stop-POST5 complex = assay: [3H]-AzAt photoaffinity labeling of Stop-POST5 complex; format: binding, shrimp (Artemia salina)
Procedure: as §2
(§4) Stop-POST5 and 80S-IRES complexes. 1 μM solutions of either Stop-POST5 or 80S-S.IRES, determined by A260, were photolabeled by [^3H]-AzAt. The sample was then either directly purified by ultracentrifugation through a sucrose cushion to determine the photoincorporation stoichiometry in the complex, or subjected to phenol/chloroform extraction to determine the photoincorporation stoichiometry in the total RNA. To determine the photoincorporation background arising from incomplete removal of noncovalently bound photolyzed AzAt, AzAt was prephotolysed for 5 min before adding to the complex, followed by the 20 min incubation in dark at 37° C. and subsequent sucrose cushion purification or RNA extraction as described above.

[2] = target: T2, eRF1.eRF3.GDPNP ternary complex (Saccharomyces cerevisiae, UniProt P12385); assay: [3H]-AzAt photoaffinity labeling of eRF1 within ternary complex; format: binding
T2 construct: made in house; host or cells: E. coli BL21(DE3) CodonPlus
Procedure: as §2, §3

[3] = test system: Small RNAs within Stop-POST5 complex; assay: AzAt photoincorporation into small RNAs (urea-PAGE, RNAse H fragments); format: binding, shrimp (Artemia salina)
Procedure: FIG. 11 illustrates 8% Urea-PAGE resolution of small RNAs.
as §2, §4, §1
Small RNAs. AzAt photoincorporation into the 4 small RNAs (CrPV-IRES, 5.8S rRNA, 5S rRNA, and tRNA) contained within POST5 was examined by one-dimensional (1D) urea-PAGE analysis, by RNA-Seq, and by RNAse H fragment assay (FIG. 11).

[4] = Stop-POST5, PAL, 30 μM AzAt, alone or plus Ataluren 500 μM / GJ072 150 μM named as label
[5] = Stop-POST5, PAL, 300 μM AzAt, alone or plus competing ligand named as label
[6] = Stop-POST5, PRE, 300 μM prephotolysed AzAt
[7] = PAL, 30 μM AzAt, alone (AzAt) or plus competing ligand named as label (Ataluren 500 μM, GJ072 150 μM)
[8] = PAL, 30 μM AzAt, alone or plus competing ligand named as label
[9] = PAL, 300 μM AzAt, alone or plus competing ligand named as label

T2 sequence (P05453 166-685): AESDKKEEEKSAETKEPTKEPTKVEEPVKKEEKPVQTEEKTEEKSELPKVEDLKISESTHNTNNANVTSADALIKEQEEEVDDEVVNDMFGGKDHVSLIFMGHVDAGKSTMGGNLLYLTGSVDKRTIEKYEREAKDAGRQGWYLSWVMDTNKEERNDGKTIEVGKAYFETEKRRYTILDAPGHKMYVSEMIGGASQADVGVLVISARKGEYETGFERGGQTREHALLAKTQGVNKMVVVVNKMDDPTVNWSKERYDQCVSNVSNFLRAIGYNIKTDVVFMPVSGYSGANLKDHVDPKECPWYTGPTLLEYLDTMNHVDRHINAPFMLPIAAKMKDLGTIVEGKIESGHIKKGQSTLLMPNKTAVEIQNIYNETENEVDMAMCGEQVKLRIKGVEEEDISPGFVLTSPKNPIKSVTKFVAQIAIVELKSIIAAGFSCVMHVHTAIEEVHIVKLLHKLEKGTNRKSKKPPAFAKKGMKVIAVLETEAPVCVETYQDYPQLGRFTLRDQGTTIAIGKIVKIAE
T2 sequence (P12385 whole entry): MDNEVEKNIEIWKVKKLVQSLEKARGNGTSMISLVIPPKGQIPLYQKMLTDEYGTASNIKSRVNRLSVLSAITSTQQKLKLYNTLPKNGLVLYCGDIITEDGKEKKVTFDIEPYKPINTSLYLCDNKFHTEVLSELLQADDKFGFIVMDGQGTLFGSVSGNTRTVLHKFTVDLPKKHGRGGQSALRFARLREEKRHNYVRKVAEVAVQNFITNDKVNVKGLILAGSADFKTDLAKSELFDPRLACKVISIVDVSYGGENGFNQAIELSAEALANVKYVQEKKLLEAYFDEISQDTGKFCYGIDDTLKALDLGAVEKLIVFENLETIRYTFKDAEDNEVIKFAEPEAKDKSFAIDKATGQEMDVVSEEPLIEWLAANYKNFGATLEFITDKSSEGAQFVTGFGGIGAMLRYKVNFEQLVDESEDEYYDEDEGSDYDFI
T1 sequence (P12385 whole entry): as above

In the case of `[N-]=[N+]=Nc1ccc(-c2nc(-c3cccc(C(=O)O)c3)no2)cc1` [AzAt], the “saturating value of photo-incorporation into Fragment II” value ([1]; FIG. 7B) is reported as 0.8%, the “saturating value of photo-incorporation into Fragment III” value ([1]; FIG. 7B) is reported as 0.8% and the “Photoincorporation yields into 18S A1195/ I: 18S 1151-1206” value [1, 4] is reported as 0.26 ± 0.03 mole %. For the same compound, the “Photoincorporation yields into 26S-A2669:A2672/ III: 26S 2638-2702” value [1, 4] was 0.13 ± 0.04 mole %, the “Photoincorporation yields into 26S-A3093/ II: 26S 3069-3113” value [1, 4] was 0.03 ± 0.01 mole % and the “Photoincorporation yields into RNAse H Fragment IV: 26S 1413-1476” value [1, 4] was 0.020 ± 0.003%. The “Photoincorporation yields into 26S-A2669:A2672/ III: 26S 2638-2702” value [1, 5] was 1.07 ± 0.14 mole %, the “Photoincorporation yields into 26S-A3093/ II: 26S 3069-3113” value [1, 5] was 0.40 ± 0.01 mole % and the “Photoincorporation yields into RNAse H Fragment IV: 26S 1413-1476” value ([1]; Stop-POST5, PAL, 300 μM AzAt, alone or plus competing ligand named as label (eRF1 2 μM, eRF3 4 μM, GDPNP 1 mM)) was 0.29 ± 0.03%. For the same compound, the “Photoincorporation yields into 18S A1195/ I: 18S 1151-1206” value ([1]; Stop-POST5, PAL, 300 μM AzAt, alone or plus competing ligand named as label (eRF1 2 μM, eRF3 4 μM, GDPNP)) was 1.55 ± 0.20 mole %, the “Photoincorporation yields into 18S A1195/ I: 18S 1151-1206” value [1, 6] was 0.012 ± 0.003 mole % and the “Photoincorporation yields into 26S-A2669:A2672/ III: 26S 2638-2702” value [1, 6] was 0.03 ± 0.02 mole %. The “Photoincorporation yields into 26S-A3093/ II: 26S 3069-3113” value [1, 6] was 0.04 ± 0.01 mole %, the “KA, photoincorporation into Fragments II and III (PTC)” value ([1]; fit to eq (1)) was 200 ± 40 µM and the Kd ([1]; simple hyperbolic binding isotherm, FIG. 7A, read-out: apparent KD, photoincorporation into Fragment I (18S-A1195)) was 240 ± 10 µM. The Kd (eRF1; hyperbolic saturation curve, read-out: Kd, photoincorporation into isolated eRF1) was 110 ± 20 µM, the “saturation labeling of Stop-POST5” value (Stop-POST5 complex) was 1.2 /Stop-POST5 and the “share of photoincorporation found in RNA components of Stop-POST5” value (Stop-POST5 complex) was “More than 80%”. The “KA, AzAt photoincorporation into Stop-POST5” value (Stop-POST5 complex; fit to eq (1), FIG. 2B) was 120 ± 60 µM, the “share of RNA photoincorporation found within 18S and 26S rRNA” value (Stop-POST5 complex; urea-PAGE analysis) was > 90% and the Kd ([2]; two-site model, read-out: Kd, tight site photoincorporation into eRF1 within ternary complex) was 90 ± 20 µM. The “Photoincorporation yields into CrPV-IRES nts1-155” value [3, 7] was 0.56 ± 0.04 mole %, the “Photoincorporation yields into 5S rRNA” value [3, 8] was 0.19 ± 0.01 mole % and the “Photoincorporation yields into 5.8S rRNA” value [3, 8] was 0.25 ± 0.01 mole %. For the same compound, the “Photoincorporation yields into CrPV-IRES All” value [3, 8] was 0.85 ± 0.14 mole %, the “Photoincorporation yields into CrPV-IRES nts156-221” value [3, 8] was 0.23 ± 0.08 mole % and the “Photoincorporation yields into CrPV-IRES nts222-278” value [3, 8] was 0.06 ± 0.04 mole %. The “Photoincorporation yields into tRNA^Gln” value [3, 8] was 0.30 ± 0.04 mole %, the “Photoincorporation yields into CrPV-IRES nts1-155” value ([3]; PAL, 300 μM AzAt, alone (AzAt) or plus competing ligand named as label (eRF1 2 μM, eRF3 4 μM, GDPNP 1 mM)) was 7.6 ± 1.5 mole % and the “Photoincorporation yields into 5S rRNA” value [3, 9] was 1.62 ± 0.11 mole %. For the same compound, the “Photoincorporation yields into 5.8S rRNA” value [3, 9] was 0.89 ± 0.10 mole %, the “Photoincorporation yields into CrPV-IRES All” value [3, 9] was 7.3 ± 0.5 mole % and the “Photoincorporation yields into CrPV-IRES nts156-221” value [3, 9] was 3.2 ± 0.8 mole %. For the same compound, the “Photoincorporation yields into CrPV-IRES nts222-278” value [3, 9] was 0.02 ± 0.03 mole %, the “Photoincorporation yields into tRNA^Gln” value [3, 9] was 2.3 ± 0.2 mole % and the “Photoincorporation yields into 5S rRNA” value ([3]; PRE, 300 μM prephotolysed AzAt) was 0.02 ± 0.01 mole %. For the same compound, the “Photoincorporation yields into 5.8S rRNA” value ([3]; PRE, 300 μM prephotolysed AzAt) was 0.02 ± 0.01 mole %, the “Photoincorporation yields into CrPV-IRES All” value ([3]; PRE, 300 μM prephotolysed AzAt) was 0.02 ± 0.01 mole % and the “Photoincorporation yields into CrPV-IRES nts1-155” value ([3]; PRE, 300 μM prephotolysed AzAt) was 0.02 ± 0.01 mole %. The “Photoincorporation yields into CrPV-IRES nts156-221” value ([3]; PRE, 300 μM prephotolysed AzAt) was 0.05 ± 0.04 mole %, the “Photoincorporation yields into CrPV-IRES nts222-278” value ([3]; PRE, 300 μM prephotolysed AzAt) was 0.03 ± 0.01 mole % and the “Photoincorporation yields into tRNA^Gln” value ([3]; PRE, 300 μM prephotolysed AzAt) was 0.41 ± 0.09 mole %.
In the case of `O=C(O)c1cccc(-c2noc(-c3ccccc3F)n2)c1` [Ataluren], the “effect on AzAt photoincorporation into Fragment IV (26S A1437/A1438)” value [1] is reported as “neither ataluren nor GJ072 reduce labeling at all”, the “effect on AzAt photoincorporation into Fragment I (18S-A1195)” value ([1]; Stop-POST5) is reported as “strongly inhibits” and the “effect on AzAt photoincorporation into Fragment II (A3093)” value ([1]; Stop-POST5) is reported as “stimulated”. For the same compound, the “effect on AzAt photoincorporation into Fragment III (A2669/A2672)” value ([1]; Stop-POST5) was “only weakly inhibited”, the “Photoincorporation yields into 18S A1195/ I: 18S 1151-1206” value [1, 4] was 0.06 ± 0.01 mole % and the “Photoincorporation yields into 26S-A2669:A2672/ III: 26S 2638-2702” value [1, 4] was 0.10 ± 0.04 mole %. The “Photoincorporation yields into 26S-A3093/ II: 26S 3069-3113” value [1, 4] was 0.06 ± 0.01 mole %, the “Photoincorporation yields into RNAse H Fragment IV: 26S 1413-1476” value [1, 4] was 0.034 ± 0.006% and the “effect on AzAt photoincorporation into isolated eRF1” value (eRF1; FIG. 2E) was “substantially inhibited”. The “inhibition of AzAt photoincorporation into eRF1 within the ternary complex” value ([2]; compared with isolated eRF1, FIG. 2E) was “less marked”, the “Photoincorporation yields into CrPV-IRES nts1-155” value [3, 7] was 0.40 ± 0.13 mole % and the “Photoincorporation yields into 5S rRNA” value [3, 8] was 0.15 ± 0.01 mole %. For the same compound, the “Photoincorporation yields into 5.8S rRNA” value [3, 8] was 0.19 ± 0.01 mole %, the “Photoincorporation yields into CrPV-IRES All” value [3, 8] was 0.76 ± 0.05 mole % and the “Photoincorporation yields into CrPV-IRES nts156-221” value [3, 8] was 0.17 ± 0.03 mole %. For the same compound, the “Photoincorporation yields into CrPV-IRES nts222-278” value [3, 8] was 0.07 ± 0.06 mole %, the “Photoincorporation yields into tRNA^Gln” value [3, 8] was 0.22 ± 0.03 mole % and the “effect on AzAt labeling of CrPV-IRES fragments 1-155 and 156-221” value ([3]; RNAse H fragment assay) was “no clearly significant changes”. The “effect on AzAt labeling of small RNAs” value ([3]; none clearly significant) was “generally small reductions”.
